Measured values published in patent US20190275012A9, “SUBSTITUTED THIAZOLO-PYRIDINE COMPOUNDS AS MALT1 INHIBITORS” (Lupin Limited, priority 2016, published 2019).

System: NF-kB transcriptional activity in HEK-293-NF-kB-Luc cell line overexpressing MALT1
Assay: NF-kB reporter assay (luciferase, MALT1 stably overexpressed)
Format: cell-based
Settings: Homo sapiens, 24 h, HEK-293-NF-kB-Luc cells stably overexpressing MALT1, 24 h treatment, Bright Glo luminescence; read-out: NF-kB inhibition IC50
Method: The NF-⇐B reporter assay was performed to screen for MALT1 inhibition mediated reduction in the NF-⇐B transcriptional activity. For this purpose, MALT1 was stably overexpressed in HEK-293—NF-⇐B-Luc cell line. Cells were seeded in poly-D-lysine coated 96-well plates in a culture medium containing the selection markers (DMEM+10% FBS+50 |g/ml Hygromycin+500 |g/ml Geniticin) and allowed to adhere overnight. On the following day, cells were treated with various concentrations of test compounds for 24 h. After 24 h of treatment with test compounds, media was removed from each well and Bright Glo™ (Promega, USA) substrate was added and incubated for further 10 min at ambient temperature. Luminescence was measured for detection of NF-⇐B reporter activity. RLUs (Relative Luminescence Units) were directly proportional to the NF-⇐B activity. % inhibition of NF-⇐B activity was calculated relative to the samples containing media with 0.1% DMSO alone as per the following formula

| SMILES | IC50 [nM] |
| --- | --- |
| CCOC(C)c1c(NC(=O)Nc2ccc(-n3nccn3)c(Cl)c2)cnc2sc(C)nc12 (racemic) [Compound 161, 1-(3-Chloro-4-(2H-1,2,3-triazol-2-yl)phenyl)-3-(7-(1-ethoxyethyl)-2-methylthiazolo[5,4-b]pyridin-6-yl)urea] | 1 to 100 |
| COc1nc(-n2ccnn2)c(Cl)cc1NC(=O)Nc1cnc2sc(C)nc2c1C(C)OC (single isomer, unassigned) [Compound 91a, 1-(5-Chloro-2-methoxy-6-(1H-1,2,3-triazol-1-yl)pyridin-3-yl)-3-(7-(1-methoxyethyl)-2-methylthiazolo[5,4-b]pyridin-6-yl)urea] | 1 to 100 |
| COC(C)(c1c(NC(=O)Nc2cnc(-n3nccn3)c(C(F)(F)F)c2)cnc2sc(C)nc12)C1CC1 (single isomer, unassigned) [Compound 93a, 1-(6-(2H-1,2,3-triazol-2-yl)-5-(trifluoromethyl)pyridin-3-yl)-3-(7-(1-cyclopropyl-1-methoxyethyl)-2-methylthiazolo[5,4-b]pyridin-6-yl)urea] | 1 to 100 |
| COc1ccc(NC(=O)Nc2cnc3sc(C)nc3c2C(C)OC)cc1Cl (single isomer, unassigned) [Compound 118b, 1-(3-chloro-4-methoxyphenyl)-3-(7-(1-methoxyethyl)-2-methylthiazolo[5,4-b]pyridin-6-yl)urea] | 101 to 500 |
| COc1ncc(Cl)cc1NC(=O)Nc1cnc2sc(C)nc2c1C(C)OC (single isomer, unassigned) [Compound 120b, 1-(5-chloro-2-methoxypyridin-3-yl)-3-(7-(1-methoxyethyl)-2-methylthiazolo[5,4-b]pyridin-6-yl)urea] | 1 to 100 |
| COC(C)c1c(NC(=O)Nc2cnc(-n3ccnn3)c(Cl)c2)cnc2sc(C)nc12 (single isomer, unassigned) [Compound 123b, 1-(5-Chloro-6-(1H-1,2,3-triazol-1-yl)pyridin-3-yl)-3-(7-(1-methoxyethyl)-2-methylthiazolo[5,4-b]pyridin-6-yl)urea] | 1 to 100 |
| CCC(OC)c1c(NC(=O)Nc2cnc(OC)c(Cl)c2)cnc2sc(C)nc12 (single isomer, unassigned) [Compound 127a, 1-(5-Chloro-6-methoxypyridin-3-yl)-3-(7-(1-methoxypropyl)-2-methylthiazolo[5,4-b]pyridin-6-yl)urea] | 1 to 100 |
| COC(C)c1c(NC(=O)Nc2cncc(C#N)c2)cnc2sc(C)nc12 (single isomer, unassigned) [Compound 129b, 1-(5-Cyanopyridin-3-yl)-3-(7-(1-methoxyethyl)-2-methylthiazolo[5,4-b]pyridin-6-yl)urea] | 1 to 100 |
| COC(C)c1c(NC(=O)Nc2ccnc(C(F)(F)F)c2)cnc2sc(C)nc12 (single isomer, unassigned) [Compound 130b, 1-(7-(1-Methoxyethyl)-2-methylthiazolo[5,4-b]pyridin-6-yl)-3-(2-(trifluoromethyl)pyridin-4-yl)urea] | 1 to 100 |
| COc1cc(-n2ccnn2)c(Cl)cc1NC(=O)Nc1cnc2sc(C)nc2c1C(C)OC (single isomer, unassigned) [Compound 132b, 1-(5-Chloro-2-methoxy-4-(1H-1,2,3-triazol-1-yl)phenyl)-3-(7-(1-methoxyethyl)-2-methylthiazolo[5,4-b]pyridin-6-yl)urea] | 1 to 100 |
| COC(C)c1c(NC(=O)Nc2cc(C(F)(F)F)cn(C)c2=O)cnc2sc(C)nc12 (single isomer, unassigned) [Compound 133b, 1-(7-(1-methoxyethyl)-2-methylthiazolo[5,4-b]pyridin-6-yl)-3-(1-methyl-2-oxo-5-(trifluoromethyl)-1,2-dihydropyridin-3-yl)urea] | 501 to 1500 |
| COc1ncc(NC(=O)Nc2cnc3sc(C)nc3c2C2CCCO2)cc1Cl (single isomer, unassigned) [Compound 135a, 1-(5-Chloro-6-methoxypyridin-3-yl)-3-(2-methyl-7-(tetrahydrofuran-2-yl)thiazolo[5,4-b]pyridin-6-yl)urea] | 1 to 100 |
| Cc1nc2c(C3CCCO3)c(NC(=O)Nc3ccc(-n4nccn4)c(Cl)c3)cnc2s1 (single isomer, unassigned) [Compound 137a, 1-(3-Chloro-4-(2H-1,2,3-triazol-2-yl)phenyl)-3-(2-methyl-7-(tetrahydrofuran-2-yl)thiazolo[5,4-b]pyridin-6-yl)urea] | 1 to 100 |
| Cc1nc2c(C3CCCCO3)c(NC(=O)Nc3cnc(-n4nccn4)c(Cl)c3)cnc2s1 (single isomer, unassigned) [Compound 140b, 1-(5-Chloro-6-(2H-1,2,3-triazol-2-yl)pyridin-3-yl)-3-(2-methyl-7-(tetra hydro-2H-pyran-2-yl)thiazolo[5,4-b]pyridin-6-yl)urea] | 101 to 500 |
| COC(C)c1c(NC(=O)Nc2cnc(-n3ccnn3)c(C(F)(F)F)c2)cnc2sc(C)nc12 (single isomer, unassigned) [Compound 141a, 1-(6-(1H-1,2,3-Triazol-1-yl)-5-(trifluoromethyl)pyridin-3-yl)-3-(7-(1-methoxyethyl)-2-methylthiazolo[5,4-b]pyridin-6-yl)urea] | 1 to 100 |
| CCC(OC)c1c(NC(=O)Nc2cnc(-n3nccn3)c(C(F)(F)F)c2)cnc2sc(C)nc12 (single isomer, unassigned) [Compound 146a, 1-(6-(2H-1,2,3-Triazol-2-yl)-5-(trifluoromethyl)pyridin-3-yl)-3-(7-(1-methoxypropyl)-2-methylthiazolo[5,4-b]pyridin-6-yl)urea] | 1 to 100 |
| COC(C)c1c(NC(=O)Nc2cnc(-c3ncc(C)o3)c(Cl)c2)cnc2sc(C)nc12 (single isomer, unassigned) [Compound 148b, 1-(5-Chloro-6-(5-methyloxazol-2-yl)pyridin-3-yl)-3-(7-(1-methoxyethyl)-2-methylthiazolo[5,4-b]pyridin-6-yl)urea] | 1 to 100 |
| COC(C)c1c(NC(=O)Nc2cnc(OC(F)F)c(Cl)c2)cnc2sc(C)nc12 (single isomer, unassigned) [Compound 149a, 1-(5-Chloro-6-(difluoromethoxy)pyridin-3-yl)-3-(7-(1-methoxyethyl)-2-methylthiazolo[5,4-b]pyridin-6-yl)urea] | 1 to 100 |
| COC(c1c(NC(=O)Nc2cnc(-n3nccn3)c(Cl)c2)cnc2sc(C)nc12)C1CC1 (single isomer, unassigned) [Compound 154a, 1-(5-Chloro-6-(2H-1,2,3-triazol-2-yl)pyridin-3-yl)-3-(7-(cyclopropyl(methoxy)methyl)-2-methylthiazolo[5,4-b]pyridin-6-yl)urea] | 1 to 100 |
| COc1nc(-n2nccn2)c(Cl)cc1NC(=O)Nc1cnc2sc(C)nc2c1C(OC)C1CC1 (single isomer, unassigned) [Compound 156a, 1-(5-Chloro-2-methoxy-6-(2H-1,2,3-triazol-2-yl)pyridin-3-yl)-3-(7-(cyclopropyl(methoxy)methyl)-2-methylthiazolo[5,4-b]pyridin-6-yl)urea] | 1 to 100 |
| CCC(C)c1c(NC(=O)Nc2cnc(-n3nccn3)c(Cl)c2)cnc2sc(C)nc12 (single isomer, unassigned) [Compound 157a, 1-(7-(sec-Butyl)-2-methylthiazolo[5,4-b]pyridin-6-yl)-3-(5-chloro-6-(2H-1,2,3-triazol-2-yl)pyridin-3-yl)urea] | 1 to 100 |
| CCOC(C)c1c(NC(=O)Nc2cc(Cl)c(-n3nccn3)nc2OC)cnc2sc(C)nc12 (single isomer, unassigned) [Compound 166b, 1-(5-Chloro-2-methoxy-6-(2H-1,2,3-triazol-2-yl)pyridin-3-yl)-3-(7-(1-ethoxyethyl)-2-methylthiazolo[5,4-b]pyridin-6-yl)urea] | 1 to 100 |
| COC(C)c1c(NC(=O)Nc2ccc(-c3ncccn3)c(Cl)c2)cnc2sc(C)nc12 (single isomer, unassigned) [Compound 202, (S) or (R)-1-(3-Chloro-4-(pyrimidin-2-yl)phenyl)-3-(7-(1-methoxyethyl)-2-methylthiazolo[5,4-b]pyridin-6-yl)urea] | 1 to 100 |
| COC(C)c1c(NC(=O)Nc2ccc(-n3nccn3)c(C(F)F)c2)cnc2sc(C)nc12 (single isomer, unassigned) [Compound 207a, (R) or (S)-1-(3-(Difluoromethyl)-4-(2H-1,2,3-triazol-2-yl)phenyl)-3-(7-(1-methoxyethyl)-2-methylthiazolo[5,4-b]pyridin-6-yl)urea] | 1 to 100 |
| CCC(c1c(NC(=O)Nc2cnc(-n3nccn3)c(Cl)c2)cnc2sc(C)nc12)N(C)C (single isomer, unassigned) [Compound 227b, 1-(5-Chloro-6-(2H-1,2,3-triazol-2-yl)pyridin-3-yl)-3-(7-(1-(dimethylamino)propyl)-2-methylthiazolo[5,4-b]pyridin-6-yl)urea] | 1 to 100 |
| Cc1nc2c(C3CC3)c(NC(=O)Nc3ccnc(C#N)c3)cnc2s1 [Compound 12, 1-(2-Cyanopyridin-4-yl)-3-(7-cyclopropyl-2-methylthiazolo[5,4-b]pyridin-6-yl)urea] | 501 to 1500 |
| COCC(C)N(C)c1c(NC(=O)Nc2cnc(-n3nccn3)c(Cl)c2)cnc2sc(C)nc12 (stereo not shown) [Compound 53a, 1-(5-Chloro-6-(2H-1,2,3-triazol-2-yl)pyridin-3-yl)-3-(7-((1-methoxypropan-2-yl)(methyl)amino)-2-methylthiazolo[5,4-b]pyridin-6-yl)urea] | 1 to 100 |
| COc1ncc(NC(=O)Nc2cnc3sc(C)nc3c2C2=CCOCC2)cc1Cl [Compound 58, 1-(5-Chloro-6-methoxypyridin-3-yl)-3-(7-(3,6-dihydro-2H-pyran-4-yl)-2-methylthiazolo[5,4-b]pyridin-6-yl)urea] | 501 to 1500 |
